On the set-up of series [1]: method as in Scifinder. Conditions: ref Scifinder; cited from earlier work.
Series [2] concerns the target T1, CYP19A1 (Homo sapiens, UniProt P11511).
T1 sequence (P11511 1-503): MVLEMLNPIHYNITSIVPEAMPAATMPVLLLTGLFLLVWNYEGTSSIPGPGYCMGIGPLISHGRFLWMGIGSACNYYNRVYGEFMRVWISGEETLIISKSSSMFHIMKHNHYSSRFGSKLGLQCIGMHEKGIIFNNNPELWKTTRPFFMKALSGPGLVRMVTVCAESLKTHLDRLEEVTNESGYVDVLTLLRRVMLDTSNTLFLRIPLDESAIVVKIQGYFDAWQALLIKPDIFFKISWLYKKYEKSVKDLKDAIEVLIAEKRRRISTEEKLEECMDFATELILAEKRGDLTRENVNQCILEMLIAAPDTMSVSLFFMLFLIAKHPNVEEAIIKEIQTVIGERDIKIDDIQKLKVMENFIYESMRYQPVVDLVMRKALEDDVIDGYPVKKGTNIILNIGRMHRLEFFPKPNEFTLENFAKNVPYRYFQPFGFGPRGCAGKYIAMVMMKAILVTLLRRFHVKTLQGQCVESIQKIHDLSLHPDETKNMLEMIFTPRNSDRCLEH
The series can be described thus: In cell activity assay for CYP19A1 (dibenzylfluorescein conversion, HEK293 T-Rex cells). It is filed as cell-based. Conditions: concentrations up to 30 μM, in the dark and following irradiation to form 7. The method, then:
Thus, the activity against CYP19A1 was evaluated using a recently developed in-cell fluorometric assay.
REE or DBF was added as described above.

A further series deals with HEK293 T-Rex cell line. Put plainly: Cellular viability (resazurin to resorufin, 72 h). Conditions: Supplementary Fig. 24d. It is filed as cell-based, human. The method, then: The cells were >70% viable at 72 h with 10 μM compound, as quantified by metabolically active cells determined by the conversion of resazurin to resorufin (Supplementary Figs. 18–20).
The parental HEK T-Rex cell line was maintained as above, in the absence of Zeocin. Compounds were serially diluted in media, and the cells were dosed from 0–30 μM compound, and then incubated at 37 °C (n = 3). […] The cells were incubated with the compound in the dark for 30 min prior to light exposure, using the same parameters as in the enzyme activity assay, and then treated as above.
On the technique in general: The colour change of resazurin is a common sign of viable cells or microbes.

A short description of series [3]: Stability of complexes at 37 °C in the dark (HPLC, UV/Vis). Type of series: physicochemical. The method, then: The stability of each complex was assessed over 24 h under aqueous conditions at 37 °C (Supplementary Figs. 12–15). […] Given the potency of the caged inhibitor, thermal stability is of critical importance, making complex 6 the preferred photocaged candidate.
Opti-MEM with 2% fetal bovine serum (right) at 37 °C in the dark over the course of 0 (blue line) to 24 h (black dashed line). Compounds were tested in triplicate (n = 3), the data for one replicate are presented. Complexes 4 and 5 slowly degraded in the experiment condition (see HPLC traces, Figures S13–14). The decrease in absorbance for complex 6 is explained by the slow aggregation of the compound in the 96-well plate.
(1 picture or pasted object on this page, not shown here)
Supplementary Figure 13. a HPLC chromatogram analysis of stability of 4 (50 µM in di-H2O) before (black dashed line, purity > 92 % ) and after incubation at 37 °C for 24 hours (red line). At 24 hours, 43 % of 4 was […]
Supplementary Figure 14. HPLC chromatogram analysis of stability of 5 (50 µM in di-H2O) before (black dashed line, purity > 97 %) and after incubation at 37 °C for 24 hours (red line). At 24 hours, 50 % of 5 was observed […]
Supplementary Figure 15. HPLC chromatogram analysis of stability of 6 (40 µM in di-H O : MeCN mixture (4:1), […]
MeCN was added to reduce the aggregation) before (black dashed line, purity > 99.5 %) and after incubation at 37 °C for 24 hours. At 24 hours, less than 2 % degradation was observed (calculated by area, detection wavelength = […]
Supplementary Figure 16. HPLC chromatogram analysis of stability of 6 (40 µM) in 5 % DMSO / di-H2O with a 100 μM GSH, b 100 μM imidazole and c acidic condition (pH = 1) after incubation at 37 °C for 72 hours. Less than […]
detection wavelength = 280 nm). […]
imidazole and c acidic condition (pH = 1) after incubation at 37 °C for 72 hours. d At 72 hours less than 7 % degradation was observed by HPLC at pH = 1 (calculated by area, detection wavelength = 280 nm). Compounds were tested in triplicate (n = 3), the data for one replicate are presented.

The nature of series [4]: Irradiation-induced 1O2 production (Singlet Oxygen Sensor Green assay). Type of series: physicochemical. Conditions: sheet S27; triplicate columns; DMSO control about 0.9. The text has this:
Some Ru(II) complexes can generate singlet oxygen when photoexcited, a feature that has been applied to the selective photoinactivation of proteins. In this approach, the Ru(II) system is conjugated to a peptide that is a specific ligand for the protein target; binding of the peptide to the protein ensures close proximity of the Ru(II) center and thus, upon photoexcitation, the generation of a high local concentration of singlet oxygen. […] As very little of this reactive oxygen species was generated, inactivation of the CYP enzymes by this process appears unlikely.
Supplementary Figure 27. Determination of irradiation-induced 1O2 production with 660 nm light (1 hr = 58.7 J/cm2)
using the Singlet Oxygen Sensor Green assay. […]

The conditions of series [5]: human, microsomes.
For series [6] the following is noted: rat, microsomes.
The conditions of series [7]: mouse, microsomes.
Series [8] concerns CYP19A1. On the set-up: method as in PMID 9152599. Conditions: cited from earlier work.
The target of the next series is human isoform of CYP51. More on the design: method as in PMID 23826084. Conditions: cited from earlier work.
The test system of another series is CYP3A4. More on the design: method as in PMID 23018626. Conditions: cited from earlier work.
The target of the next series is fungal CYP51. To be noted: read-out: Kd fungal CYP51; cited from earlier work.

Values joined by “and” are separate entries in the source; they are usually repeats but may differ in a detail not shown here. Identical values can stand only once. Like-named read-outs stand apart in the source and are kept apart here. Some results are limits rather than exact numbers.

Take `Cc1ccncn1` [methyl pyrimidine]: the pKa in series [1] was 2.0.

`Cc1ccncc1` [methyl pyridine]: in [1], the pKa is 5.9.

`O=C([O-])c1cc2[n+](c3ccccc13)[Ru-4]13([n+]4ccccc4)([n+]4ccccc4-c4cccc([n+]41)-c1cccc[n+]13)[n+]1c-2cc(C(=O)[O-])c2ccccc21` [Compound 8, [Ru(tpy)(bca)(pyridine)]]: at CYP19A1 [2], the “impact on any CYP (CYP19A1)” value is given as “no impact”. The “effect on cell health” value in the series with HEK293 T-Rex cell line is on record as “no effect”. Also, the “degradation at pH = 1” value in [3] (5 % DMSO / di-H2O, acidic condition (pH = 1), 37 °C, 72 hours) is “less than 7%”. Besides, the “degradation over 72 h” value in [3] (Supplementary Fig. 17) is reported as < 7%. In series [4], the “irradiation-induced 1O2 production (Singlet Oxygen Sensor Green signal, relative)” value was 1.034 and 0.94 and 1.135.

In the case of `COc1ccc(/C=C/c2cc[n+]([Os-4]34([Cl])([n+]5ccccc5-c5cccc[n+]53)[n+]3ccccc3-c3cccc[n+]34)cn2)c(OC)c1.[Cl-]` [[Os(bpy)2(2)Cl]Cl], the “CLint(mic)” value was < 9.6 µL/min/mg in series [5], 16.9 µL/min/mg in [6] and < 9.6 µL/min/mg in series [7]. Also, the T1/2 in [5] is > 2.42 h; in series [6], 1.36 h; in series [7], > 2.42 h. For the same molecule, the entries for the “Remaining, % (NCF=60min)” value in [5] (1 h), in series [6] (1 h) and in [7] (1 h) were 107%, 91.8% and 75.9%, respectively. Besides, the “Remaining, % (T=60min)” value in [5] (1 h) is recorded as 78.4%; in [6] (1 h), 56.5%; in series [7] (1 h), 71.8%.

For `CC(C)(C#N)c1cc(Cn2cncn2)cc(C(C)(C)C#N)c1` [Anastrozole, anastrozole], in the series on CYP19A1 [8], the “selectivity for CYP19A1 over liver CYPs” value was “at least 500 fold”.

Take `CC(=O)N1CCN(c2ccc(OCC3COC(Cn4ccnc4)(c4ccc(Cl)cc4Cl)O3)cc2)CC1` (centres unmarked) [Ketoconazole, ketoconazole]: the Kd on human isoform of CYP51 was 42 nM; on fungal CYP51 it was 27 nM. Also, the IC50 in the series with CYP3A4 is […].

As usually defined, the pKa is the pH at which an ionisable group is half protonated. Broadly, the Kd is the constant that tells how readily two partners part at equilibrium. For orientation: IC50 means the point on the concentration scale where inhibition reaches its midpoint.

These data come from PMC9233675, “Ru(II) photocages enable precise control over enzyme activity with red light” (Nature Communications, 2022).
